In patent US6723235B2, “Apparatus for screening compound libraries” (priority 1998, dated 2004):

Biological target: cholera toxin B subunit (Vibrio cholerae serotype O1, UniProt P01556)
Type: binding

cholera toxin B subunit, sequence (P01556 22-124 limits assumed): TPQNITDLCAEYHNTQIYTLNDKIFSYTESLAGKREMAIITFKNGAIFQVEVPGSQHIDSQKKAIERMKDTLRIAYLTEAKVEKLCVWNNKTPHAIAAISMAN

SMILES | break through relative to void volume | break through volume (pH 6.9)
COC(=O)CCCCCCCCOC1OC(COC2OC(CO)C(O)C(O)C2O)C(O)C(OC2OC(CO)C(O)C(O)C2O)C1O (centres unmarked) [compound 3, αMan(1→3)[αMan(1→6)]βMan-OGr] | broke through in the void volume | 
CC(=O)N[C@H]1[C@H](O[C@@H]2[C@H](O[C@]3(C(=O)O)C[C@H](O)[C@@H](NC(C)=O)[C@H]([C@H](O)[C@H](O)CO)O3)[C@@H](O)[C@H](O[C@H]3[C@H](O)[C@@H](O)[C@H](O)O[C@@H]3CO)O[C@@H]2CO)O[C@H](CO)[C@H](O)[C@@H]1O[C@@H]1O[C@H](CO)[C@H](O)[C@H](O)[C@H]1O [compound 7, GM1 oligosaccharide] |  | ~300 µL
